Source: PMC7822874, “Chemoprotective antimalarials identified through quantitative high-throughput screening of Plasmodium blood and liver stage parasites” (Scientific Reports, 2021)
Peptide text beside a SMILES is read from it. * marks the point of attachment. Boc = CC(C)(C)OC(=O)*; OBn = c1ccc(CO*)cc1

System: Plasmodium falciparum Dd2 asexual blood stage parasites
Assay: microbe, parasite or virus in culture
Parameters: species or system Plasmodium falciparum Dd2 in human erythrocytes; single determination (one 11-point concentration-response curve)
Settings: Plasmodium falciparum, DD2, Erythrocyte, 72 h

Row | SMILES | AC50
1 | CCCCCCSc1ccc([C@@H]2[C@H]3C(=O)N(CC)C(=O)[C@H]3[C@]3(C(=O)OC)CCCCN23)cc1OC [MLS001362153-01] | 15 µM
2 | CCN1CCN(Cc2ccc(NC(=O)c3ccc(C)c(NC(=O)C4=NN(c5ccccc5)C(=O)C4)c3)cc2C(F)(F)F)CC1 [MLS003105987-01] | 8.41 µM

Same assay, conditions: Plasmodium falciparum, DD2, Erythrocyte, 72 h; read-out: AC50

Row | SMILES | AC50
3 | NC1=NC(c2ccccc2C(F)(F)F)N(c2ccc(F)c(Cl)c2)C(N)=N1 (stereo not drawn) [MLS001199775-01] | 11.9 µM
4 | COc1ccc(C(O)(CCC(C)C)C(CN2CCOCC2)c2ccc(Cl)cc2)cc1 (stereo not drawn) [MLS001200330-01] | 6.68 µM
5 | CCCCC(O)(c1ccc(F)cc1)C(CN1CCOCC1)c1ccc(Cl)cc1 (stereo not drawn) [MLS001200342-01] | 5.96 µM
6 | CCCC(O)(c1ccc(Cl)cc1)C(CN1CCOCC1)c1ccc(Cl)cc1 (stereo not drawn) [MLS001200366-01] | 4.73 µM
7 | Cc1ccccc1Nc1nc(-c2cccnc2)cs1 [MLS001206645-01] | 9.44 µM
8 | Cc1ccc2nc(-c3ccc(O)c(O)c3)cn2c1 [MLS001209043-01] | 13.3 µM
9 | Cc1oc2c(CN3CCCCC3)c(O)ccc2c(=O)c1-c1ccc(Cl)cc1 [MLS001214839-01] | 5.31 µM
10 | CCOc1ccc2[nH]c3c(NCCN(C)C)ncnc3c2c1 [MLS001214990-01] | 16.8 µM
11 | CCOC(=O)COn1c(-n2nc(C)cc2C)nc2ccccc2c1=O [MLS001215150-01] | 9.44 µM
12 | Cc1cc(C)c2oc(=O)cc(CN3CCCCC3)c2c1 [MLS001216359-01] | 13.3 µM
13 | O=c1nc(C2CCN(S(=O)(=O)c3ccc4c(c3)OCCO4)CC2)[nH]c2c1nnn2Cc1ccc(F)cc1 [MLS001216943-01] | 8.41 µM
14 | Cc1ccccc1N(C(=O)c1snc(C(N)=O)c1N)C(C(=O)NCC1CCCO1)c1ccc(N(C)C)cc1 (stereo not drawn) [MLS001218424-01] | 7.5 µM
15 | O=C(NC1CC1)C1CCN(S(=O)(=O)c2ccc(Cl)cc2)CC1 [MLS001220436-01] | 13.3 µM
16 | CCC(C)(C)n1nnnc1C(c1ccccc1OC)N1CCN(C(=O)c2ccco2)CC1 (stereo not drawn) [MLS001221981-01] | 15 µM
17 | CCC(C)c1ccc(N(C(=O)c2ccco2)C(C(=O)NC2CCCC2)c2cccnc2)cc1 (stereo not drawn) [MLS001222477-01] | 6.68 µM
18 | O=C(Nc1ccncc1)Nc1ccc(Cl)cc1 [MLS001224591-01] | 10.6 µM
19 | O=c1nc(C2CCN(S(=O)(=O)/C=C/c3ccccc3)CC2)[nH]c2c1nnn2Cc1ccc(F)cc1 [MLS001229566-01] | 13.3 µM
20 | COc1ccc(Nc2ccccc2NC(=O)c2ccccc2Br)cc1 [MLS001233685-01] | 5.96 µM
21 | CC(C)CC(NC(=O)C(NC(=O)OC(C)(C)C)C(C)C)C(=O)NC(CCC(=O)OCc1ccccc1)C(N)=O (stereo not drawn) [MLS001304946-01] (Boc-Val-Leu-Glu(OBn)-NH2; configuration not given here) | 8.41 µM
22 | CCOC(=O)c1c(CSC(=N)N)n(-c2ccc(C)cc2)c2cc(Br)c(OC(C)=O)cc12 [MLS001304955-01] | 5.96 µM
23 | CCCn1c(=N)c(C(=O)NCc2ccc3c(c2)OCO3)cc2c(=O)n3cccc(C)c3nc21 [MLS001305712-01] | 10.6 µM
24 | CC(=O)Nc1ccc(Nc2cc(C)nc(Nc3ccc(NC(C)=O)cc3)n2)cc1 [MLS001359830-01] | 3.35 µM
25 | O=C(NCCc1c[nH]c2ccccc12)C(=O)Nc1cc2c3c(c1)CC(=O)N3CCC2 [MLS001361834-01] | 10.6 µM
26 | CCCCCCSc1ccc([C@H]2N[C@@](Cc3ccccc3)(C(=O)OC)[C@H]3C(=O)N(CC)C(=O)[C@@H]23)cc1 [MLS001362744-01] | 3.35 µM
27 | Clc1ccc(C(Cn2ccnc2)OCc2csc3c(Cl)cccc23)c(Cl)c1 (stereo not drawn) [MLS002154122-01] | 2.37 µM

Row | SMILES | AC50
28 | CC(C(=O)N1CCCC1)N1CCN(S(=O)(=O)c2ccc(C(C)(C)C)cc2)CC1 (stereo not drawn) [MLS002156464-01] | 3.35 µM
29 | CC(Oc1ccccc1)C(=O)Nc1nc(-c2ccccn2)cs1 (stereo not drawn) [MLS002158763-01] | 8.41 µM
30 | O=S(=O)(c1ccc(F)cc1)N1CCN(C(S)=NC2CC2)CC1 [MLS002161026-01] | 3.35 µM
31 | COc1ccccc1NS(=O)(=O)c1cc(NC(=O)c2cccc(S(=O)(=O)N(C)C)c2)ccc1N1CCOCC1 [MLS002162226-01] | 7.5 µM
32 | CCN(CC)CCNC(=O)c1ccc(NC(=O)c2cccc(S(=O)(=O)N3CCc4ccccc43)c2)cc1 [MLS002169644-01] | 5.31 µM
33 | CC(C(=O)NC1CCCC1)N1CCN(S(=O)(=O)c2ccc(C(C)(C)C)cc2)CC1 (stereo not drawn) [MLS002169740-01] | 8.41 µM
34 | CC(=O)NCCC(=O)Nc1cc(S(=O)(=O)N2CCCCC2)ccc1N1CCCCC1 [MLS002181171-01] | 7.5 µM
35 | O=C1N(c2ccccc2C(F)(F)F)O[C@@]1(c1ccccc1)C1CCCCC1 [MLS002206598-01] | 5.31 µM
36 | O=C1N(c2ccccc2C(F)(F)F)O[C@@]1(c1ccccc1)C1CCCC1 [MLS002206604-01] | 2.99 µM
37 | Oc1ccc(Cl)cc1CNCC1CCCCC1 [MLS002207458-01] | 4.22 µM
38 | O=C1C=C(c2cccc(CO)c2)C[C@@H](c2ccc(Cl)cc2)C1 [MLS002302575-01] | 3.76 µM
39 | COC(=O)C1=C(c2ccc(-c3ccccc3)c(F)c2)C[C@@H]2CC[C@H]1N2C(=O)NCc1cccc2ccccc12 [MLS002302696-01] | 10.6 µM
40 | COC(=O)C1=C(c2ccc(OC(F)(F)F)cc2)C[C@@H]2CC[C@H]1N2C(=O)NCc1cccc2ccccc12 [MLS002302720-01] | 3.35 µM
41 | COC(=O)C1=C(c2ccc(OC)c(OC)c2)C[C@@H]2CC[C@H]1N2C(=O)NCc1cccc2ccccc12 [MLS002302726-01] | 3.35 µM
42 | COc1ccc(-c2c(C#Cc3ccsc3)c3cc(-c4cccc5[nH]ccc45)ccc3n2C)cc1 [MLS002391587-01] | 6.68 µM
43 | COc1cc(C#Cc2c(-c3cncn3C)n(C)c3ccc(-c4ccc(OC)c(OC)c4)cc23)cc(OC)c1 [MLS002391599-01] | 4.73 µM
44 | COc1ccc(-c2cc(C(=O)Nc3cc(OC)cc(C(=O)Nc4cccc(C(F)(F)F)c4)c3)[nH]n2)cc1 [MLS003105955-01] | 5.31 µM
45 | COc1cc(NC(=O)c2ccc(N)nc2)cc(C(=O)Nc2cccc(C(F)(F)F)c2)c1 [MLS003105961-01] | 5.31 µM
46 | CCCNCC(O)COc1ccccc1C(=O)CCc1ccccc1 (stereo not drawn) [NCGC00015819-06] | 0.841 µM
47 | CC(C)C[C@@H](NC(=O)[C@@H](O)[C@H](N)Cc1ccccc1)C(=O)O [NCGC00093685-01] | 2.99 µM
48 | N#Cc1nn(-c2c(Cl)cc(C(F)(F)F)cc2Cl)c(N)c1[S+]([O-])C(F)(F)F (stereo not drawn) [NCGC00094574-06] | 9.44 µM
49 | CO/N=C1\CN(c2nc3c(cc2F)c(=O)c(C(=O)O)cn3C2CC2)CC1CN (stereo not drawn) [NCGC00095182-01] | 9.44 µM
50 | COc1ccc(-n2nc3ccc(NC(=O)c4ccc(-c5cc(Cl)ccc5Cl)o4)cc3n2)cc1 [NCGC00098498-01] | 4.22 µM
51 | CC(C)Oc1ccc(C(=O)Nc2ccc3oc(-c4ccncc4)nc3c2)cc1 [NCGC00098730-01] | 8.41 µM
52 | Cc1cccc(-n2c(/C=C/c3c(C)[nH]c4ccccc34)nc3ccccc3c2=O)c1 [NCGC00098794-01] | 3.76 µM

Row | SMILES | AC50
53 | Cc1ccccc1NC(=O)c1c(NC(=O)c2ccco2)sc2c1CCC(C(C)(C)C)C2 (stereo not drawn) [NCGC00099842-01] | 13.3 µM
54 | COC(=O)c1ccc2nc(C)cc(Nc3ccc(O)cc3)c2c1 [NCGC00099848-01] | 9.44 µM
55 | Cc1ccc(-c2nnc(Nc3ccc(O)cc3)c3ccccc23)cc1[S+](=O)([O-])N1CCN(C)CC1 [NCGC00099994-01] | 6.68 µM
56 | COC(=O)c1ccc(Nc2nnc(-c3ccc(C)c([S+](=O)([O-])N4CCN(C)CC4)c3)c3ccccc23)cc1 [NCGC00099996-01] | 8.41 µM
57 | COc1cc(-c2nc(-c3ccccc3)c(-c3ccc(Br)cc3)[nH]2)cc(OC)c1O [NCGC00100017-01] | 2.11 µM
58 | Cc1ccc(-c2nnc(Nc3ccc(OCC(N)=O)cc3)c3ccccc23)cc1[S+](=O)([O-])NCC1CCCO1 (stereo not drawn) [NCGC00100178-01] | 4.73 µM
59 | CCCCN1C(=O)C(O)(CC(=O)c2ccc(C(C)(C)C)cc2)c2ccccc21 (stereo not drawn) [NCGC00100209-01] | 4.73 µM
60 | CCCn1c(=N)c(C(=O)NC2CCCC2)cc2c(=O)n3cccc(C)c3nc21 [NCGC00100358-01] | 5.96 µM
61 | Cc1cccn2c(=O)c3cc(C(=O)NC(C)c4ccccc4)c(=N)n(CCOCCO)c3nc12 (stereo not drawn) [NCGC00100488-01] | 10.6 µM
62 | CC1CCCN(Cc2c(O)ccc3c(=O)c(-c4ccc(Cl)cc4)c(C(F)(F)F)oc23)C1 (stereo not drawn) [NCGC00100583-01] | 0.841 µM
63 | CC1CCCN(Cc2c(O)ccc3c(=O)c(Oc4ccc(C(C)(C)C)cc4)c(C(F)(F)F)oc23)C1 (stereo not drawn) [NCGC00100587-01] | 0.299 µM
64 | COc1ccc(NC(=O)c2sc3nc4c(c(-c5ccc(OC)cc5)c3c2N)C(=O)CC(C)(C)C4)cc1 [NCGC00100714-01] | 1.88 µM
65 | COc1ccc(-c2c3c(nc4sc(C(=O)Nc5ccc(F)cc5)c(N)c24)CC(C)(C)CC3=O)cc1 [NCGC00100718-01] | 0.944 µM
66 | COc1ccc(-c2c3c(nc4sc(C(=O)Nc5ccc(Cl)cc5)c(N)c24)CC(C)(C)CC3=O)cc1 [NCGC00100738-01] | 0.376 µM
67 | CCOC(=O)c1sc(NC(=O)C2c3ccccc3Oc3ccccc32)c(C(=O)OCC)c1C [NCGC00100913-01] | 2.66 µM
68 | CCCCn1c(=N)c(C(=O)NC2CCCCC2)cc2c(=O)n3cccc(C)c3nc21 [NCGC00101037-01] | 1.5 µM
69 | Cc1cc(Oc2c(C(F)(F)F)oc3c(CN4CCC(C)CC4)c(O)ccc3c2=O)cc(C)c1Cl [NCGC00101140-01] | 0.75 µM
70 | CCOC(=O)c1sc(NC(=O)C(C)Sc2nc(-c3ccccc3)cc(C(F)(F)F)n2)c(C(=O)OC)c1C (stereo not drawn) [NCGC00101272-01] | 2.37 µM
71 | CCN(CC)C(=O)c1sc(NC(=O)C(C)Sc2nc(-c3ccccc3)cc(C(F)(F)F)n2)c(C(=O)OC)c1C (stereo not drawn) [NCGC00101276-01] | 0.596 µM
72 | Cc1ccc(Oc2c(C(F)(F)F)oc3c(CN4CCC(C)CC4)c(O)ccc3c2=O)cc1 [NCGC00101480-01] | 1.68 µM
73 | CC1CCN(Cc2c(O)ccc3c(=O)c(Oc4ccccc4Cl)c(C(F)(F)F)oc23)CC1 [NCGC00101482-01] | 1.33 µM
74 | CCc1ccc(Oc2c(C(F)(F)F)oc3c(CN4CCN(C)CC4)c(O)ccc3c2=O)cc1 [NCGC00101488-01] | 0.75 µM
75 | COc1ccc(Oc2c(C(F)(F)F)oc3c(CN4CCCC(C)C4)c(O)ccc3c2=O)cc1 (stereo not drawn) [NCGC00101510-01] | 2.37 µM
